According to US10189822B2, “Heterocyclic modulators of lipid synthesis” (3-V Biosciences, Inc., priority 2015, dated 2019):

Tests used:
[1] = test system: HCV GT1b replicon cell line; experiment: Two-compound combination study in HCV GT1b replicon, MacSynergy II; assay type: cell-based
Procedure: The DMSO stocks of the compounds used in the single compound testing were also used in this analysis. Combination dilution matrixes were generated by POD-810 in 96-well assay microplates. The POD-810 system was used to generate 7-point, 2-fold serial dilutions in a matrix format.
The plates were incubated for 1 hour, and cell viability was measured on an Envision reader for cytotoxicity calculation. The liquid was then removed from the plates, after which 50 μL PBS and 50 μL firefly luciferase substrate solution were added to each well, after a 2-minute incubation period, chemiluminescence (for HCV replication calculation) was measured. The data were analyzed using MacSynergy™ II.

[2] = test system: Db/+ mice fed a high fructose diet; conditions: treated for 28 days; cited from earlier work
db/db mice = conditions: mouse, in vivo; cited from earlier work
[3] = test system: HCV GT1b replicon cell line; assay type: cell-based; conditions: IFN-α
HCV replicon GT1b cells = experiment: Cytotoxicity in HCV replicon GT1b cells, Cell Titer Flo (Example 5); assay type: cell-based; conditions: 72 hours, IFN-α
[4] = test system: HCV GT1b replicon cell line; conditions: expected value, Table 10; IFN-α; cited from earlier work

Q: With `Cc1ccc(C(=O)N2CCC(F)(c3ccc(C#N)cc3)CC2)cc1NC(=O)NC1CCCOC1` (stereo not drawn) [(V-K)] as the compound, how does the “Combination antiviral effect (in words)” value ([1]; in combination with IFN-α, RBV, Compounds B, C, D, E) read?
A: additive antiviral activity

Q: Which Insulin sensitivity [2] does the source give for `CC12C[C@@]34C=CC(=O)[C@@](C)(CCC(=O)Nc5c(O)ccc(C(=O)O)c5O)C3[C@H](CC1C4)O2` (stereo partly drawn) [platensimycin] here?
A: improved insulin sensitivity

Q: And the Liver triglyceride levels [2]?
A: reduced liver triglyceride levels

Q: And the Ambient glucose levels (db/db mice)?
A: reduced

Q: Which “GT1b EC50 in dose ranging assay” value ([3]; Table 13) does the source give for IFN-α here?
A: 1.34 IU/mL

Q: And the “GT1b EC50” value ([3]; single compound, 72 hours)?
A: 1.34 IU/mL

Q: And the “GT1b CC50” value (HCV replicon GT1b cells)?
A: >1000 IU/mL

Q: What about the “GT1b EC50 of single dose in drug combination” value ([1]; individual compound in the combination matrix, IFN-α) of the same compound?
A: 3.43 IU/mL

Q: What about the “GT1b Expected EC50” value [4] of the same compound?
A: 1 IU/mL
